{"source": "patent US10183944B2", "about": "(Asana Biosciences, LLC, priority 2011, dated 2019)", "key": {"[1]": {"biological_target": "Syk (356-635 amino acids) catalytic domain (Homo sapiens (Human), UniProt P43405)", "assay": "Inhibition of enzymatic Syk kinase activity (radiometric)", "type": "biochemical", "settings": "read-out: IC50 Syk", "method_in_brief": "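Radiometric filter-binding format: 32P transfer from γ-32P-ATP onto pG4T, scintillation-counted after acid washes of P81 paper. Syk kinase domain (356-635), 0.035–7.5 ng per reaction, was exposed to compound for 30 minutes at room temperature before a 10-minute, 30° C. reaction with ATP (100 μM stock). Inhibition derived from counts with versus without compound.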"}, "[2]": {"tested_on": "Arthus reaction in female c57BL/6 mice", "assay": "In vivo acute study: Arthus reaction model in mice", "set-up": "species or system mouse", "settings": "for OD % Inhibition: dye extravasation (OD 610 nm)", "source_text": "Arthus reaction is a type of local type III hypersensitivity reaction. Type III hypersensitivity reactions are immune complex-mediated, and involve the deposition of antigen/antibody complexes mainly in the vascular walls, serosa (pleura, pericardium, synovium), and glomeruli. This involves formation of antigen/antibody complexes after the intradermal injection of an antibody. If the animal was previously injected with antigen and dye (has circulating antigen), an Arthus reaction occurs. This manifests as local vasculitis due to deposition of immune complexes in dermal blood vessels. Activation of complement and recruitment of PMNs ensue, resulting in an inflammatory response and extravasation of dye to the skin. Compounds which can inhibit this complex process can have therapeutic implications in wide range of inflammatory and auto-immune disorders. See, Pine, “Inflammation and bone erosion are suppressed in models of rheumatoid arthritis following treatment with a novel Syk inhibitor”; Clin. Immunol. (2007) 124 (3): 244-57; and Sylvia, “R-406, an Orally Available Spleen Tyrosine Kinase Inhibitor Blocks Fc Receptor Signaling and Reduces Immune Complex-Mediated Inflammation”, JPET 319:998-1008, 2006, which are herein incorporated by reference.\nFemale c57BL/6 mice were given an antigen injection in which the antigen was 0.1% Ovalbumin (OVA) in PBS containing 1% Evans blue (EB) at the concentration of 10 mL/kg intravenously under Isoflurane anesthesia [2.5 mg/mouse with a body weight of 25 g]. Ten minutes after antigen injection; the animals were injected with the rabbit anti-OVA IgG (50 μg in 25 μL/site) (Polysciences; Cat #23744) intradermally on the shaved back at two top locations. Animals were also injected with phosphate buffered saline (PBS, 25 μL) intradermally on the back at two bottom and opposite locations to serve as negative control. The mice were euthanized by cervical dislocation 4 hours after antigen (Ovalbumin) challenge. Skin tissue was assessed for edema by tracing the edema area on to a transparent plastic sheet. Punch biopsies of the injection sites were collected.\nEdema area was measured manually by scale. Two diameters were taken and averaged for each animal.\nPunch biopsies of the injection sites (using 10 mm skin biopsy punches) were incubated in 2 mL of sodium sulfate: acetone mixture (0.6+1.4 mL) at room temperature for 16-18 hours. The supernatants were removed from digested tissues by centrifuging at 4000 rpm for 10 minutes, filtered and were read spectrophotometrically at 610 nm.\nThe percent inhibition of dye leakage was calculated with respect to control by the formula: […]\nThe percent inhibition of edema area was calculated with respect to control by the formula: […]\nMeans of different groups were compared with control using One way ANOVA followed by Dunnett's test. Significance was represented as follows."}}, "note": "Values joined by “and” are separate entries in the source; they are usually repeats but may differ in a detail not shown here. Equal entries are not always repeated. Marks after values point to notes of the source that are not given here.", "data": [{"smiles": "Cl.O=c1[nH]ncc2nc(-c3ccccc3)nc(Nc3ccc(CN4CCNCC4)cc3)c12", "note": "[Example 7, 2-phenyl-4-(4-(piperazin-1-ylmethyl)phenylamino)pyrimido[4,5-d]pyridazin-5(6H)-one hydrochloride]", "values": [{"measurement": "IC50", "setting": "[1]", "result": "< 50", "unit": "nM"}, {"measurement": "Edema area % Inhibition", "setting": "[2]; dose 3 mg/Kg", "result": "41*** %"}, {"measurement": "Edema area % Inhibition", "setting": "[2]; dose 10 mg/Kg, hydrochloride", "result": "45*** % and 53*** % and 30%"}, {"measurement": "Edema area % Inhibition", "setting": "[2]; dose 30 mg/Kg, hydrochloride", "result": "68*** % and 74*** %"}, {"measurement": "OD % Inhibition", "setting": "[2]; dose 3 mg/Kg", "result": "40*** %"}, {"measurement": "OD % Inhibition", "setting": "[2]; dose 30 mg/Kg, hydrochloride", "result": "67*** % and 65*** %"}]}, {"smiles": "O=C(O)C1CCN(c2ccc(Nc3nc(-c4ccccc4)nc4cn[nH]c(=O)c34)cc2)CC1", "note": "[Example 13, 1-(4-(5-oxo-2-phenyl-5,6-dihydropyrimido[4,5-d]pyridazin-4-ylamino)phenyl)piperidine-4-carboxylic acid]", "values": [{"measurement": "IC50", "setting": "[1]", "result": "< 50", "unit": "nM"}, {"measurement": "Edema area % Inhibition", "setting": "[2]; dose 10 mg/Kg", "result": "53*** %"}, {"measurement": "Edema area % Inhibition", "setting": "[2]; dose 30 mg/Kg", "result": "40** %"}, {"measurement": "OD % Inhibition", "setting": "[2]; dose 10 mg/Kg", "result": 27, "unit": "%"}, {"measurement": "OD % Inhibition", "setting": "[2]; dose 30 mg/Kg", "result": 30, "unit": "%"}]}, {"smiles": "O=C(O)C1CC12CCN(c1ccc(Nc3nc(-c4ccccc4)nc4cn[nH]c(=O)c34)cc1)CC2", "note": "(centres unmarked) [Example 19, 6-(4-(5-oxo-2-phenyl-5,6-dihydropyrimido[4,5-d]pyridazin-4-ylamino)phenyl)-6-azaspiro[2.5]octane-1-carboxylic acid]", "values": [{"measurement": "IC50", "setting": "[1]", "result": "< 50", "unit": "nM"}, {"measurement": "Edema area % Inhibition", "setting": "[2]; dose 3 mg/Kg", "result": "48*** %"}, {"measurement": "Edema area % Inhibition", "setting": "[2]; dose 30 mg/Kg", "result": "60*** %"}, {"measurement": "OD % Inhibition", "setting": "[2]; dose 3 mg/Kg", "result": "53*** %"}, {"measurement": "OD % Inhibition", "setting": "[2]; dose 30 mg/Kg", "result": "60*** %"}]}, {"smiles": "O=C(O)C1CC12CCN(c1ccc(Nc3nc(N4CCCCCC4)nc4cn[nH]c(=O)c34)cc1)CC2", "note": "(centres unmarked) [Example 62, 6-(4-((2-(azepan-1-yl)-5-oxo-5,6-dihydropyrimido[4,5-d]pyridazin-4-yl)amino)phenyl)-6-azaspiro[2.5]octane-1-carboxylic acid]", "values": [{"measurement": "IC50", "setting": "[1]", "result": "< 10", "unit": "nM"}]}, {"smiles": "O=C(O)CC1CCN(c2ccc(Nc3nc(N4CCCCCC4)nc4cn[nH]c(=O)c34)cn2)CC1", "note": "[Example 108, 2-(1-(5-((2-(azepan-1-yl)-5-oxo-5,6-dihydropyrimido[4,5-d]pyridazin-4-yl)amino)pyridin-2-yl)piperidin-4-yl) acetic acid]", "values": [{"measurement": "IC50", "setting": "[1]", "result": "< 10", "unit": "nM"}]}, {"smiles": "N#CCC1CCN(c2nc(Nc3ccc(N4CCC(O)CC4)cc3)c3c(=O)[nH]ncc3n2)CC1", "note": "[Example 189, 2-(1-(4-((4-(4-hydroxypiperidin-1-yl)phenyl)amino)-5-oxo-5,6-dihydropyrimido[4,5-d]pyridazin-2-yl)piperidin-4-yl)acetonitrile]", "values": [{"measurement": "IC50", "setting": "[1]", "result": "< 10", "unit": "nM"}]}, {"smiles": "N#CCC1CCN(c2nc(Nc3ccc(N4CCN(CCO)CC4)cc3)c3c(=O)[nH]ncc3n2)CC1", "note": "[Example 191, 2-(1-(4-((4-(4-(2-hydroxyethyl)piperazin-1-yl)phenyl)amino)-5-oxo-5,6-dihydropyrimido[4,5-d]pyridazin-2-yl)piperidin-4-yl)acetonitrile]", "values": [{"measurement": "IC50", "setting": "[1]", "result": "< 10", "unit": "nM"}]}]}
